Results on eight molecules are retold here after patent publication US8951756B2, “Alkaline feed” (Hoffmann-La Roche Inc., priority 2010, dated 2015).

Data set [1] in a line: physchem. The settings on record: water.
For data set [2] the following is noted: at 20 °C; cited from earlier work.
Data set [3] in a line: physchem. The settings on record: aqueous buffer, thermodynamic from solid.
Method: (§1) The calculated amount of Leucine was weighted into a 500 ml flask. After addition of 250 ml deionized water the solution is sterilized by autoclavation. Thereafter 250 ml of a 25% (w/v) ammonia solution is added and determined whether the Leucine was dissolved or not. After dissolution of the Leucine the final volume of the solution was determined.
Data set [4] in a line: Determination of solubility of Leucine in an ammonia solution. The settings on record: for soluble: 250 ml water + 250 ml 25% (w/v) ammonia solution.
Method: as §1

≈ marks a conversion by molar mass, not a printed value. Bounds are passed on as bounds.

On to `NC(=O)CC[C@H](N)C(=O)O` [glutamine], for which the solubility in the data set “physchem [1]” (18 °C) is less than 50 mg/mL.

In the case of `N[C@@H](Cc1c[nH]cn1)C(=O)O` [histidine], the solubility in the data set “physchem [1]” (20 °C) was less than 50 mg/mL.

On to `CC[C@H](C)[C@H](N)C(=O)O` [isoleucine], for which the solubility in water in data set [2] was 40 g/L (≈ 305 mM). For the same molecule, the solubility in “physchem [1]” (20 °C) was less than 50 mg/mL.

`CC(C)C[C@H](N)C(=O)O` [leucine]: the solubility in “physchem [1]” (20 °C) is less than 50 mg/mL; in the data set “physchem [3]”, 76 mg/mL (≈ 579 mM). Moreover, the “solubility in alkaline solution relative to solubility in water” value in data set [4] (12.5% (w/v) ammonia versus water at 20 °C) is “more than three times”. For the same molecule, the soluble entry in data set [4] (Leucine concentration 17 g/l), in data set [4] (Leucine concentration 18 g/l), in data set [4] (Leucine concentration 19 g/l), in data set [4] (Leucine concentration 20 g/l), in data set [4] (Leucine concentration 21 g/l) and in data set [4] (Leucine concentration 25 g/l) was “yes” throughout. The soluble entry in data set [4] (Leucine concentration 30 g/l), in data set [4] (Leucine concentration 40 g/l), in data set [4] (Leucine concentration 50 g/l), in data set [4] (Leucine concentration 60 g/l), in data set [4] (Leucine concentration 70 g/l) and in data set [4] (Leucine concentration 71 g/l) was “yes” in each case. Besides, the soluble entry in data set [4] (Leucine concentration 72 g/l) is listed as “yes”; in data set [4] (Leucine concentration 73 g/l), “yes”; in data set [4] (Leucine concentration 74 g/l) it was “yes”; in data set [4] (Leucine concentration 75 g/l), “yes”; in data set [4] (Leucine concentration 76 g/l) it was “yes”; in data set [4] (Leucine concentration 77 g/l) it was “no”.

In “physchem [1]” (20 °C), `CSCC[C@H](N)C(=O)O` [methionine] displayed a solubility of less than 50 mg/mL.

The molecule `N[C@@H](Cc1ccccc1)C(=O)O` [phenylalanine] came in with a solubility in the data set “physchem [1]” (20 °C) of less than 50 mg/mL.

Take `N[C@@H](Cc1c[nH]c2ccccc12)C(=O)O` [tryptophane]: in data set [2], the solubility in water is 10 g/L (≈ 49 mM). The same molecule returned a solubility in “physchem [1]” (20 °C) of less than 50 mg/mL.

As to `CC(C)[C@H](N)C(=O)O` [valine], the solubility in water in data set [2] is 88 g/L (≈ 751 mM).
